What was measured:
[1] = system: Male ddY mice (global ischemia); test: Global Ischemia Activity (gasping time after decapitation); assay type: in vivo; conditions: ip
Protocol: (§1) The activities of some compounds prepared in the above-mentioned Synthetic Examples and the Comparative Examples were evaluated as follows.
2. Global Ischemia Activity
Male ddY mice having a body weight of 22 to 30 g were used (i.e., 6 mice in one group). The sample compound was intraperitoneally injected into the mice and the mice were decapitated 30 minutes after the injection. After decapitation, the gasping times were determined. The results were compared with a control group to which only the liquid medium (i.e., physiological saline) was injected.

Acute Toxicity Test = conditions: mouse, in vivo; ip, mice, suspended in 1% arabic gum
Source text: Male ddY-STF mice having an age of 4 to 5 weeks and a body weight of 22 to 30 g were used for evaluating the acute toxicity of the present compounds. The sample compound was suspended in 1% arabic gum and was intraperitoneally injected.

[2] = system: Male ddY mice (hypobaric hypoxia); test: Hypobaric Hypoxia Activity (survival time of mice at 180 mmHg); assay type: in vivo; conditions: Mus musculus, ip, 30 minutes before evacuation, survival time vs. control, read-out: Hypobaric Hypoxia (Minimum effective dose)
Protocol: as §1
1. Hypobaric Hypoxia Activity
Male ddY mice having a body weight of 22 to 30 g were used (i.e., 7 to 10 mice in one group). The mice were placed in a desiccator having a volume of about 1 liter and the desiccator was evacuated and then, the sample compound was intraperitoneally injected […]. into the mice. The desiccator was evacuated 30 minutes after the injection and the time from the start of the evacuation to the termination of breathing by the mice was determined to be the survival time. If a mouse was still alive 15 minutes after exposure to the hypoxia, the survival time was assumed to be 15 minutes. The results were compared with a control group, to which only a liquid medium (e.g., physiological saline) was injected.

COC1=C(OC)C(=O)C(C(CCCCCC(=O)O)c2ccccc2)=C(C)C1=O (stereo not drawn) [compound 3, 7-(3,4-Dimethoxy-6-methyl-2,5-benzoquinonyl)-7-phenylheptanoic acid, reference compound]
Gasping time ([1]; 25 mg/kg): Gasping time was shortened | LD50 (Acute Toxicity Test): > 500 mg/kg

COC1=C(OC)C(=O)C(C(CCC(=O)N2CCN(C)CC2)c2ccccc2)=C(C)C1=O (stereo not drawn) [Example 3, 4-(3,4-Dimethoxy-6-methyl-2,5-benzoquinonyl)-4-phenyl-1-(N-methylpiperazinyl)-1-oxobutane]
minimal effective dose [2]: 25 mg/kg

COC1=C(OC)C(=O)C(C(CCC(=O)N2CCSCC2)c2ccccc2)=C(C)C1=O (stereo not drawn) [Example 1, 4-(3,4-dimethoxy-6-methyl-2,5-benzoquinonyl)-4-phenyl-1-thiomorpholine-1-oxobutane]
minimal effective dose ([1]; Mus musculus, 30 minutes before decapitation, gasping time vs. control, read-out: Global Ischemia (Minimum effective dose)): 12.5 mg/kg | minimal effective dose [2]: 6.25 mg/kg | LD50 (Acute Toxicity Test): > 1000 mg/kg

COC1=C(OC)C(=O)C(C(CCC(=O)O)c2ccccc2)=C(C)C1=O (stereo not drawn) [compound 1, 4-(3,4-Dimethoxy-6-methyl-2,5-benzoquinonyl)-4-phenylbutyric acid, reference compound]
LD50 (Acute Toxicity Test): > 500 mg/kg

COC1=C(OC)C(=O)C(C(CCCC(=O)N2CCSCC2)c2ccccc2)=C(C)C1=O (stereo not drawn) [Example 4, 5-(3,4-dimethoxy-6-methyl-2,5-benzoquinonyl)-5-phenyl-1-thiomorpholino-1-oxopentane]
minimal effective dose [2]: 6.25 mg/kg | LD50 (Acute Toxicity Test): > 1000 mg/kg

COC1=C(OC)C(=O)C(C(CCCC(=O)O)c2ccccc2)=C(C)C1=O (stereo not drawn) [compound 2, 5-(3,4-Dimethoxy-6-methyl-2,5-benzoquinonyl)-5-phenylvaleric acid, reference compound]
LD50 (Acute Toxicity Test): > 500 mg/kg

COC1=C(OC)C(=O)C(C(CCCC(=O)N2CCOCC2)c2ccccc2)=C(C)C1=O (stereo not drawn) [Example 5, 5-(3,4-dimethoxy-6-methyl-2,5-benzoquinonyl)-5-phenyl-1-morpholino-1-oxopentane]
minimal effective dose [2]: 6.25 mg/kg | LD50 (Acute Toxicity Test): > 1000 mg/kg
